Structure (SMILES)	melting point [°C]
C/C(=C(\C#N)C(=S)/N=C/N(C)C)N1CCCN(c2ccc(Cl)cc2)CC1	259 to 264
Cc1nc(CO)c(OCc2ccccc2)c(=O)n1C	93 to 95
O=C(O)C1C=C(c2ccccc2)CC1 (stereo not drawn)	122 to 124
CN(O)C(=O)c1cccc2c1[nH]c1c3cc(Br)ccc3oc21	174 to 175
Cc1cc(Cl)ccc1N=CN(C)SSN(C)C=Nc1ccc(Cl)cc1C	56 to 57
Cc1ccccc1C(=S)NC(=O)Nc1ccc(Cl)cc1	211
CC(C)c1csc(/C=C/c2cc([N+](=O)[O-])ccc2Cl)n1	86 to 89
NC(=O)c1sc2ncnc(-c3cccc(NC(=O)Nc4cccnc4)c3)c2c1N	199 to 200
COc1ccc([N+](=O)[O-])cc1OCCO	115
Cn1cccc1-c1nc(-c2cccnc2)no1	108 to 109
CS(=O)(=O)c1ccc(-c2ccccc2CO)cc1	123 to 124
Cc1cccc(NC(=O)CN2CCN(c3ccccc3C)CC2)c1	104 to 106
O=[N+]([O-])c1ccc(-n2cccn2)cc1	210
CN(C)C=C1C(=O)N(c2cccc(C(F)(F)F)c2)c2ccccc21	103 to 106
CCOCc1cc2cc(Cl)ccc2oc1=Nc1ccccc1	58 to 59
Oc1ccc(-c2nc3cc(O)ccc3o2)c(Cl)c1	253 to 255
OC(CSC(=S)Nc1ccccn1)c1ccccc1 (stereo not drawn)	82
O=C1CN(N=Cc2ncc(-c3ccc(Cl)cc3)o2)C(=O)N1	290 to 294
CC(=O)c1ccc(C(=O)NC/C=C/c2ccccc2)cc1	120
CC#CCOc1ccc(S(=O)(=O)N(C)C(C(=O)NO)C(C)(C)SCC(C)N(CC)CC)cc1 (stereo not drawn)	65 to 68
CC(C)(C)c1cc(NC(=O)c2ccccc2)cc(C(C)(C)C)c1O	209 to 210
OCCCCCCCCCCCC(F)(F)C(F)(F)F	41 to 43
Cc1c(F)cccc1Cc1c(-c2ccccc2)c2cc(C=O)cnn2c1C(=O)N1CCN(C(=O)OC(C)(C)C)CC1	208 to 209
Nc1ccccc1NC(=O)c1cc2cccc(OCC(=O)O)c2o1	208 to 210
O=C(O)c1cccc(Oc2ccc(C(F)(F)F)c(Cl)c2)c1	90 to 91

Structure (SMILES)	melting point [°C]
O=C1NC(Cc2ccc(OCc3ccccc3)cn2)C(=O)NC1Cc1ccc(OCc2ccccc2)cc1 (stereo not drawn)	200 to 202
CN(C)C(N)=NC(=O)C(Br)c1c(Cl)cccc1Cl (stereo not drawn)	142 to 145
CC(=O)NCCc1ccc(CC(=O)O)cc1	117 to 118
CCc1cn(C2CC(O)C(CNC(=O)C(C)S(=O)(=O)c3ccc(Cl)cc3Cl)O2)c(=O)[nH]c1=O (mixture of isomers)	183 to 184
Cc1[nH]c(=O)ccc1C(=O)c1ccc([N+](=O)[O-])cc1	282 to 284
COc1cc2c(OC)cccc2cc1-c1nc2cnccc2[nH]1	178 to 180
COc1cc(OC)c(N2CCCC2)cc1/C=C/C(=O)c1ccc(S(=O)(=O)NCCCn2ccnc2)cc1	140 to 143
CCOCc1nc2c(N)nc3ccccc3c2n1C[C@@H](O)CO	99 to 100
OC1(c2cccc(C(F)(F)F)c2)CCN(CCc2ccc3ncccc3c2)CC1	140 to 142
Nc1c(NCCCN(Cc2ccccc2)c2ccccn2)c(=O)c1=O	228 to 231
CN(C)Cc1ccc(CSCCNC2=NS(=O)(=O)N=C2N2CCOCC2)o1	122 to 127
OCc1cnoc1-c1ccc(Cl)c(Cl)c1	101 to 102
CC(=O)OCc1nc2cc3c(cc2c(=O)n1COC(=O)C(C)(C)C)C(=O)CC3	144
CCCCCCC#Cc1ccc(/C=C(/C(=O)O)C(=O)OCC)o1	89 to 90
O=C(NCCCBr)c1cnccc1C(F)(F)F	61 to 63
Fc1cccc(F)c1-c1cnc(-c2ccc(Br)cc2)nn1	167 to 169
COc1ccc(-c2ccnc(-c3cn(C)c(=O)n3-c3ccc(C(C)(C)C#N)cc3)c2)cn1	187
CCCn1c(=O)c2[nH]c(C34CCC(C)(C(=O)C3=O)C4(C)C)nc2n(CCC)c1=O (stereo not drawn)	200 to 201
COc1ccc(C(=O)N2c3ccccc3C(n3c4ccccc4c4ccccc43)CC2CCCCCN(C)C)cc1OC (stereo not drawn)	198 to 200
OC1CSC(Oc2cncc(-c3cccs3)c2)C(O)C1O (stereo not drawn)	205
COC(=O)c1cc(C(=O)c2c(C)c(-c3cccc(OCC(=O)OC(C)(C)C)c3)c3ccccn23)ccc1N	81
CCOC(=O)C(C)=NNc1ccc(C)cc1C	146
COC(=O)Nc1ccc(OCc2nc3cc(F)ccc3s2)cc1C	165 to 168
CC(=O)NCCS(=O)C1(Cl)CC2CC(=O)N2C1C(=O)OCc1ccccc1 (stereo not drawn)	89 to 93
CC(C)(C)NC(=O)[C@@H]1CCCN1C(=O)[C@@H](O)[C@H](Cc1ccccc1)NC(=O)[C@H](CC(N)=O)NC(=O)OC(C)(C)C	113 to 115

Structure (SMILES)	melting point [°C]
O=C(O)[C@H](CCc1ccc(F)cc1F)NC(=O)C(F)(F)F	62 to 83.5
OCCOCc1nn(Cc2ccccc2)c2ccccc12	67 to 69
c1ccc2c(c1)Sc1ccccc1C1=C2CCNCC1	142 to 143
CCn1c(=O)c2c(nc(/C=C/c3ccc(OS(=O)(=O)C(F)(F)F)c(OC)c3)n2C)n(CC)c1=O	250 to 251
COc1cccc2c1C13CCN(C)C(C2)C1CCC(=O)C3 (single isomer, unassigned; (-))	145 to 147
O=C(Nc1ccc(-n2nc(C3CC3)cc2C2CC2)cc1)c1cccc(F)c1F	135 to 142
COc1ccc2c(=O)[nH]ncc2c1	200 to 205
CSc1nncc(-c2cccc(Cl)c2)n1	79 to 81
CCCc1nc2c(N)nc3ccccc3c2n1CCCC(C)N(OC)C(=O)Nc1ccccc1 (stereo not drawn)	140 to 142
NC(Cc1ccccc1)C(=O)NC1N=C(c2ccccc2)c2ccccc2NC1=O (stereo not drawn)	208 to 210
CC(C)c1cccc(C(C)C)c1NC(=O)C1CC2=C(CCCCCCCCCC2)C1=O (stereo not drawn)	225 to 229
CC(=O)Nc1ccc(NC(=NC#N)Oc2ccccc2)cn1	194
COCCCNS(=O)(=O)NC(=O)/C(C)=C/c1ccc(OCCOC)cc1Oc1ncc(C(F)(F)F)cc1Cl	121 to 122
CCCc1cc(O)nc(NCC)n1	108 to 110
Cc1ccc(CSc2nc3cscc3n2C(=O)OCc2ccccc2)nc1	103 to 104
N#CC(C#N)=C1N(CCCN2CCCCC2)CCN1CCN1CCCCCC1	80 to 86
COc1cc2ncnc(N3CCN(C(=S)Nc4cccc(C(C)C)c4)CC3)c2cc1OC	169 to 171
CNC(=O)c1ccc(C2C(C(=O)c3ccc(C)cc3)=C(O)C(=O)N2c2ncc(S(=O)(=O)c3ccc([N+](=O)[O-])cc3)s2)cc1 (stereo not drawn)	195 to 197
O=C(O)Cc1ccc(NC(=O)C(Cc2ccccc2)NS(=O)(=O)c2ccc(Br)cc2)cc1 (racemic)	184 to 185
CC(C)(C)OC(=O)Nc1cn(-c2cccnc2)nc1Br	109 to 112
COC(=O)CC1=C(C)C(=Cc2ccc(S(N)(=O)=O)cc2)c2ccc(OC)cc21	170 to 171
O=C(Oc1ccc(Oc2ccccc2)cc1)N1CCC(O)CC1	130 to 133
COc1cc(Cl)cc(C)c1Nc1nc2c(Cl)ccc(C(O)(C(C)C)C(C)C)c2n1C	218 to 219
CC(C)c1ccc2nc3ccc(C(=O)O)cn3c(=O)c2c1	280 to 287
CCCCc1ccc(C(=O)N[C@H](Cc2ccc(C(F)(F)F)cc2)[C@@H](O)c2ccc(F)cc2)cc1 (racemic)	171 to 172

Structure (SMILES)	melting point [°C]
Nc1nc(=O)n(S(=O)(=O)c2ccc(Cl)cc2)cc1F	174 to 178
COC(=O)c1cc(Nc2ccc(C)cc2)c(C(=O)OC)cc1Nc1ccc(C)cc1	205 to 207
OC(c1cccs1)C1CCN(CCc2ccccc2)CC1 (stereo not drawn)	123 to 125
CCOC(=O)C1=C(C)NC(C)=C(C(=O)OCC)C1c1ccccc1C=CC(=O)OC	138 to 140
Cc1ccc(S(=O)(=O)N[C@@H](C)C(=O)N[C@@H](Cc2ccccc2)C(=O)O)cc1	105 to 108
COc1cc2c(cc1Nc1ncc(Cl)c(Nc3cccc(OCC#N)c3)n1)CCOC(=O)N2C	227 to 229
N#CC1CN1OCc1ccc(Cl)cc1 (stereo not drawn)	45 to 48
CC1(C)C[C@@H](n2c(=O)c(Cl)nc3ccccc32)c2cc(C#N)ccc2O1	174 to 176
CCN(CC)CCN(CC)C(=O)c1ccc(Nc2ccnc3c(C(F)(F)F)cccc23)cc1	151 to 152
COC(=O)c1ccc(OC)c(OC)c1N	66 to 67
OC(c1ccc(OCc2ccccc2)cc1)C(F)(F)F (stereo not drawn)	115 to 117
O=C1Nc2cc(CN3CC=C(c4ccccc4)CC3)ccc2OC1F (stereo not drawn)	239
COc1ncccc1C(=O)Nc1ccn2cc(-c3ccccc3)nc2n1	225 to 226
CCOc1cc(C(CC#N)N2C(=O)c3ccc4ccccc4c3C2=O)ccc1OC (stereo not drawn)	163 to 165
CSC(=O)NCc1c[nH]c2ccccc12	110 to 111
O=C(C1CCCCC1)N1c2ccc(F)cc2CCC1CN1CCN(c2ccccc2OCC(F)(F)F)CC1 (stereo not drawn)	51
CS(=O)(=O)c1ccc(-c2oncc2CCCO)cc1	125 to 126
O=C1Nc2ccc(Br)cc2C12CCCCC2	196 to 199
O=C(O)Cc1c(C(=O)O)c2cc(Oc3ccc(Cl)cc3)ccc2n1-c1ccc(OC(F)(F)F)cc1	198 to 202
CCCc1c(OCCCCCOc2ccc3ccc(OCC(=O)O)cc3c2C(C)=O)ccc(C(C)=O)c1O	103 to 106
COc1ccc(Cl)c(Oc2c(COCC(O)CO)nc(N3CCOCC3)nc2NS(=O)(=O)c2ccc(C(C)C)cn2)c1 (racemic)	116
COc1cc([N+](=O)[O-])ccc1-c1cccc(C(=O)OC(C)(C)C)c1	88 to 88.5
c1ccc(N(c2ccccc2)c2ccc(N(c3ccccc3)c3ccccc3)cc2)cc1	200 to 202
